Measured values published in patent publication EP4806891A1 (Kangbaida (Sichuan) Biotechnology Co., Ltd., priority 2023, dated 2025).

molecular target: T1, HEK-Blue-hTLR7 cells (Homo sapiens, UniProt Q9NYK1); experiment: HEK-Blue-hTLR7 cell inhibition assay; assay type: cell-based; details: R848 0.8 µM, 16 h, OD 620 nm, read-out: TLR7 IC50
T1 construct: expressed in transfected cells; host or cells: HEK-Blue-hTLR7 cells (HEK293-derived reporter line)
T1 sequence (Q9NYK1 27-1049): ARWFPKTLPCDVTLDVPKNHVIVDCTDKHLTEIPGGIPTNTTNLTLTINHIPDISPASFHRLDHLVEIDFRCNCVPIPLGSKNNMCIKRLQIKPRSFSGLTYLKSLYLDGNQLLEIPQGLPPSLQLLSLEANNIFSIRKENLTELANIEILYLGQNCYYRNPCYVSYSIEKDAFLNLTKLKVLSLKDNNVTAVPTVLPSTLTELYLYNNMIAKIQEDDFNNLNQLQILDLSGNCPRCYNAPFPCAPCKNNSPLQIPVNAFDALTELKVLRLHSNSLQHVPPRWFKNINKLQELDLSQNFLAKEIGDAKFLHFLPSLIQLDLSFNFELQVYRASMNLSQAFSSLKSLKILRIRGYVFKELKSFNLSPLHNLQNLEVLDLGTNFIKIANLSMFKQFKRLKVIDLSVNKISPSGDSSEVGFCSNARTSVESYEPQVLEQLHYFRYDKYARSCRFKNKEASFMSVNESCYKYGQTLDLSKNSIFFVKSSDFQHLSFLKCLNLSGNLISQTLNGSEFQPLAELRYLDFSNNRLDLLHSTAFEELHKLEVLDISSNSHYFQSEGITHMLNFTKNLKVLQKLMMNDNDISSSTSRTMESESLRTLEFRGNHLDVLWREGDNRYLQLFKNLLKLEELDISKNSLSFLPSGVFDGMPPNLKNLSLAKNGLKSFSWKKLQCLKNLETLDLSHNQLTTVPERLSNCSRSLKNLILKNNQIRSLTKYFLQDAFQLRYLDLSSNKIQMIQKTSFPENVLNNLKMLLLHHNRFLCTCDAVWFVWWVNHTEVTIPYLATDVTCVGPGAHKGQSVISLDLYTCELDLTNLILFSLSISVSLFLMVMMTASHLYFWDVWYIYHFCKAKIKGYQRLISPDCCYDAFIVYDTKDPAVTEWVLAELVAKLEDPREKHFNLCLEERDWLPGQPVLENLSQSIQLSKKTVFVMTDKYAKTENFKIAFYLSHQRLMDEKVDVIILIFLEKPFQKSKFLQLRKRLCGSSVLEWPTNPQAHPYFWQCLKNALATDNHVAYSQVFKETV
In short: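 Cells were pre-incubated 4 h, then co-treated 16 h at 37 °C with compound (10 doses, 0.5–10000 nM final) plus R848 (0.8 µM for TLR7, 3 µM for TLR8) or ODN2006 (1 µM, TLR9). Reporter OD620 gave inhibition relative to DMSO blank and agonist-only controls; IC50 came from curve fitting.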

Row | IC50 [µM] | SMILES
1 | < 0.1 | CN1CCC(c2nnc([C@]34CN(c5ccc(C#N)n6ncc(Cl)c56)C[C@@]3(C(F)(F)F)C4)o2)CC1 [Compound 84, 3-chloro-4-((1S,5R)-1-(5-(1-methylpiperidin-4-yl)-1,3,4-oxadiazol-2-yl)-5-(trifluoromethyl)-3-azabicyclo[3.1.0]hexan-3-yl)pyrazolo[1,5-a]pyridine-7-carbonitrile]
2 | < 1 | CN1CCC(c2nnc([C@]34CN(c5c(Br)cc(C#N)n6nccc56)C[C@@]3(C(F)(F)F)C4)o2)CC1 [Compound 86, 5-bromo-4-((1S,5R)-1-(5-(1-methylpiperidin-4-yl)-1,3,4-oxadiazol-2-yl)-5-(trifluoromethyl)-3-azabicyclo[3.1.0]hexan-3-yl)pyrazolo[1,5-a]pyridine-7-carbonitrile]
3 | < 0.1 | CN1CCC(c2nnc([C@]34CN(c5ccc(C(F)(F)F)n6nccc56)C[C@@]3(C(F)(F)F)C4)o2)CC1 [Compound 87, 2-(1-methylpiperidin-4-yl)-5-((1S,5R)-5-(trifluoromethyl)-3-(7-(trifluoromethyl)pyrazolo[1,5-a]pyridin-4-yl)-3-azabicyclo[3.1.0]hexan-1-yl)-1,3,4-oxadiazole]
4 | < 0.1 | CN1CCC(F)(c2nnc([C@]34CN(c5ccc(C#N)n6nccc56)C[C@@]3(C(F)(F)F)C4)o2)CC1 [Compound 90, 4-((1S,5R)-1-(5-(4-fluoro-1-methylpiperidin-4-yl)-1,3,4-oxadiazol-2-yl)-5-(trifluoromethyl)-3-azabicyclo[3.1.0]hexan-3-yl)pyrazolo[1,5-a]pyridine-7-carbonitrile]
5 | < 0.1 | CN1CCC(c2nnc([C@]34CN(c5ccc(C#N)c6ncnn56)C[C@@]3(C(F)(F)F)C4)o2)CC1 [Compound 91, 5-((1S,5R)-1-(5-(1-methylpiperidin-4-yl)-1,3,4-oxadiazol-2-yl)-5-(trifluoromethyl)-3-azabicyclo[3.1.0]hexan-3-yl)-[1,2,4]triazolo[1,5-a]pyridine-8-carbonitrile]

More lines, now with the values behind:

Row | SMILES | IC50 [µM]
6 | CN1CCC(c2nnc([C@]34CN(c5c(Br)cc(C#N)n6ncc(Br)c56)C[C@@]3(C(F)(F)F)C4)o2)CC1 [Compound 85, 3,5-dibromo-4-((1S,5R)-1-(5-(1-methylpiperidin-4-yl)-1,3,4-oxadiazol-2-yl)-5-(trifluoromethyl)-3-azabicyclo[3.1.0]hexan-3-yl)pyrazolo[1,5-a]pyridine-7-carbonitrile] | > 1
7 | CN1CCC(Oc2nnc([C@]34CN(c5ccc(C(F)(F)F)c6ncccc56)C[C@@]3(C(F)(F)F)C4)o2)CC1 [Compound 92, 2-((1-methylpiperidin-4-yl)oxy)-5-((1S,5R)-5-(trifluoromethyl)-3-(8-(trifluoromethyl)quinolin-5-yl)-3-azabicyclo[3.1.0]hexan-1-yl)-1,3,4-oxadiazole] | < 0.1
8 | CN1CCC(Oc2nnc([C@]34CN(c5ccc(OC(F)(F)F)c6ncccc56)C[C@@]3(C(F)(F)F)C4)o2)CC1 [Compound 93, 2-((1-methylpiperidin-4-yl)oxy)-5-((1S,5R)-5-(trifluoromethyl)-3-(8-(trifluoromethoxy)quinolin-5-yl)-3-azabicyclo[3.1.0]hexan-1-yl)-1,3,4-oxadiazole] | < 1
9 | CN1CCC(O)(c2nnc([C@]34CN(c5ccc(C(F)(F)F)c6ncccc56)C[C@@]3(C(F)(F)F)C4)o2)CC1 [Compound 94, 1-methyl-4-(5-((1S,5R)-5-(trifluoromethyl)-3-(8-(trifluoromethyl)quinolin-5-yl)-3-azabicyclo[3.1.0]hexan-1-yl)-1,3,4-oxadiazol-2-yl)piperidin-4-ol] | < 0.1
10 | CN1CC(Cc2nnc([C@]34CN(c5ccc(C(F)(F)F)c6ncccc56)C[C@@]3(C(F)(F)F)C4)o2)C1 [Compound 95, 2-((1-methylazetidin-3-yl)methyl)-5-((1S,5R)-5-(trifluoromethyl)-3-(8-(trifluoromethyl)quinolin-5-yl)-3-azabicyclo[3.1.0]hexan-1-yl)-1,3,4-oxadiazole] | < 0.1
11 | FC(F)(F)Oc1ccc(N2C[C@]3(c4nnc(C5(F)CCNCC5)o4)C[C@]3(C(F)(F)F)C2)c2cccnc12 [Compound 96, 2-(4-fluoropiperidin-4-yl)-5-((1S,5R)-3-(8-(trifluoromethoxy)quinolin-5-yl)-5-(trifluoromethyl)-3-azabicyclo[3.1.0]hexan-1-yl)-1,3,4-oxadiazole] | < 0.1
12 | CN1CCC(Oc2nnc([C@]34CN(c5ccc(C#N)c6ncnn56)C[C@@]3(C(F)(F)F)C4)o2)CC1 [Compound 97, 5-((1S,5R)-1-(5-((1-methylpiperidin-4-yl)oxy)-1,3,4-oxadiazol-2-yl)-5-(trifluoromethyl)-3-azabicyclo[3.1.0]hexan-3-yl)-[1,2,4]triazolo[1,5-a]pyridine-8-carbonitrile] | < 0.1
